Key:
hERG channel = hERG channel (Homo sapiens, UniProt Q12809); assay: In vitro hERG channel inhibition; settings: for hERG channel current suppression rate (compensated suppression rate): HEK-293 cells
[1] = Fertility and early embryonic developmental toxicity study; type: in vivo, rat; settings: both sexes, SD, rat, in vivo; both males and females
Text: (§1) Various toxicology studies have been performed. All studies were GLP-compliant unless otherwise noted.

SD rat = assay: as above; type: in vivo; settings: Oral; 0, 500, 1000, 2000 mg/kg
Text: as §1

[2] = system: RIPK1/3-MLKL-mediated necroptosis pathway; assay: Necroptosis signaling and DAMP release in HaCaT cells treated with CM or rhHMGB1; type: cell-based, human
Method: An additional experiment was tested for assessing whether EC-18 treatment leads to early termination of the RIPK1/3-MLKL-mediated downstream necroptosis pathway. This was performed by using DAMP-containing conditioned media (CM) harvested from HaCaT cells, irradiated for 48 hrs, and analyzed after 2 or 72 hrs of EC-18 treatment. […] To further confirm that DAMPs in CM contribute to the activation of a necroptosis signaling pathway in a paracrine manner, recombinant human HMGB1 (rhHMGB1) was treated directly to the normal HaCaT cells. The rhHMGB1 elevated the phosphorylation of RIPK1/3 and MLKL after 2 hrs and subsequently released HMGB1 and HSP90 (FIGS. 35C-35D). To evaluate whether EC-18 mitigates the activation of RIPK1/3 and MLKL, 10 or 100 μg/mL of EC-18 was treated before the addition of CM or rhHMGB1. As a result, EC-18 lowered the phosphorylation of RIPK/3 and MLKL in both CM- and rhHMGB1-treated cells after 2 hrs. Release of HMGB1 and Hsp90 was also subsided by EC-18 after 72 hrs of post addition of CM or rhHMGB1 to the cells (FIGS. 35A-35D). TLR4-induced necroptosis signaling pathway caused by DAMP release produces cytokines, such as CXCL8, a chemotactic cytokine for neutrophils. As CXCL8 increases upon tissue damage, it was measured in cells treated with CM or rhHMGB1 as a measure of inflammation. […]

[3] = In vitro metabolic stability / metabolite screening, human liver microsomes; type: in vitro ADME; settings: for Mean Peak Area in LC-RID: Human, N=2
Method: [^14C]EC-18 or the positive control (7-ethoxycoumarin; 7-EC) reacted with microsomes prepared from hepatocytes of rats, dogs, monkeys, and humans, with or without cofactors, for 60 and 120 min. Then, the residual EC-18 concentration over time was measured by LC-RID ([^14C]EC-18) or LC-MS/MS (7-EC) (FIG. 63 and FIG. 64).
Each test system was designed to examine phase 1 metabolic reaction (test system A), phase 2 metabolic reaction (test system B), and non-enzymatic degradation.
The LC-RID chromatographic profiles of radioactive metabolites produced in the 2-hr incubation reaction mixtures of the same test systems A, B, and C used to assess the metabolic and non-metabolic elimination rates of EC-18 were compared to the LC-UV chromatographic profiles of the synthetic reference material. […] The relative radioactivity of EC-18 accounted for 42-67% of total radioactivity. […]. The peaks of M4 and M6 were determined in monkeys and humans. M1 was abundantly detected in all species, but it was assumed to be a peak of early elution. The LC-UV chromatograms of reaction mixtures in each test system (FIGS. 65A-65C) and the relative radioactivity of the screened metabolites are shown in Table 25.

[4] = system: Balb/c mice, γ-Radiation TBI; assay: Survival after total body irradiation 6.5-10 Gy (Example 4); type: in vivo, mouse; settings: 250 mg/kg/day PO
Text: In order to evaluate effects of PLAG on survival rates of animal models exposed to radiation, the following test groups were constructed as shown in Table 3 and results are shown in FIG. 7B, and FIG. 8-12. As discussed in Examples above, the first group of untreated group (negative control) of ARS-induced mice after radiation was compared to the second group of treated group of ARS-induced mice with PLAG after radiation.

[5] = Whole blood and lymphatic radioactivity in rats after single oral [14C]EC-18 100 mg/kg; type: in vivo, rat

Sequence of hERG channel (Q12809 whole entry): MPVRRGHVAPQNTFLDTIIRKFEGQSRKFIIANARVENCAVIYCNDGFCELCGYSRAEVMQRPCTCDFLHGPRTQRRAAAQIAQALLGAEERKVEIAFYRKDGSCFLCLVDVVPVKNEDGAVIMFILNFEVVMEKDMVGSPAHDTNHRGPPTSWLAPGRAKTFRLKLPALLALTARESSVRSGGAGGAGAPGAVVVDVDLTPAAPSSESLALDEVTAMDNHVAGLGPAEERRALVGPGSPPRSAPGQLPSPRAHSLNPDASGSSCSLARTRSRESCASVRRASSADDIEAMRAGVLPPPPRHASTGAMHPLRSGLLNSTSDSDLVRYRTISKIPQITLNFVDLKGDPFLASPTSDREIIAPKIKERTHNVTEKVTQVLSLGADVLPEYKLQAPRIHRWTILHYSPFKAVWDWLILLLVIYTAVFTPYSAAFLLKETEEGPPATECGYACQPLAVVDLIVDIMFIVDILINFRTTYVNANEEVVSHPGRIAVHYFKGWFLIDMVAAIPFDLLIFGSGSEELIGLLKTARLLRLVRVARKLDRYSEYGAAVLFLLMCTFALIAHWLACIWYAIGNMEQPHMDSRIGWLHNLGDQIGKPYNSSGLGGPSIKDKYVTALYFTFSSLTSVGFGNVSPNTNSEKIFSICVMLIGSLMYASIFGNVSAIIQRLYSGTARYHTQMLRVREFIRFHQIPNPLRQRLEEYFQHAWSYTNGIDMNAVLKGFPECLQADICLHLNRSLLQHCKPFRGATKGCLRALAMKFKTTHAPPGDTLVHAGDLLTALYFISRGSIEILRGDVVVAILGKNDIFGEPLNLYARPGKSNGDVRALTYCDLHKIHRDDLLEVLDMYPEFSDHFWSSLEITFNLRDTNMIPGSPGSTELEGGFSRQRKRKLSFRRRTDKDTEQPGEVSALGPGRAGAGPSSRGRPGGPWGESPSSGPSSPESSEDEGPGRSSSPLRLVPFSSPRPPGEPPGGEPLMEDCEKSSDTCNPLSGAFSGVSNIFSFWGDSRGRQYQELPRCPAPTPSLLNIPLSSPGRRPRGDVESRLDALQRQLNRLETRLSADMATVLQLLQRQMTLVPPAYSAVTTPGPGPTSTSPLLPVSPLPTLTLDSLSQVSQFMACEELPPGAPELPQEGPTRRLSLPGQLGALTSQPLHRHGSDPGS

Q: Which results are given for `CCCCC/C=C\C/C=C\CCCCCCCC(=O)OC(COC(C)=O)COC(=O)CCCCCCCCCCCCCCC` (stereo not shown) [EC-18, 1-palmitoyl-2-linoleoyl-3-acetylglycerol]?
A: hERG channel current suppression rate (compensated suppression rate) (hERG channel; 125 μM): 1.39%; hERG channel current suppression rate (compensated suppression rate) (hERG channel; 250 μM): 2.97%; hERG channel current suppression rate (compensated suppression rate) (hERG channel; 500 μM): 2.54%; hERG channel current suppression rate (compensated suppression rate) (hERG channel; 1000 μM): 2.90%; hERG channel current inhibition (hERG channel; concentrations up to 1000 μM): did not inhibit the hERG channel current; NOAEL [1]: 2000 mg/kg/day; mortality (SD rat): No dead animals; phosphorylation of RIPK1/3 and MLKL ([2]; 10 or 100 μg/mL before CM or rhHMGB1, after 2 hrs): lowered; release of HMGB1 and Hsp90 ([2]; 10 or 100 μg/mL, 72 hrs after CM or rhHMGB1): subsided; elimination rate ([3]; 1-hr reaction, test system A (Phase 1 metabolic reaction)): 21.2%; elimination rate ([3]; 1-hr reaction, test system B (Phase 2 metabolic reaction)): 25.5%; elimination rate ([3]; 1-hr reaction, test system C (non-enzymatic degradation)): 26.5%; elimination rate ([3]; 2-hr reaction, test system A): 32.8%; elimination rate ([3]; 2-hr reaction, test system B): 35.4%; elimination rate ([3]; 2-hr reaction, test system C): 32.6%; Mean Peak Area in LC-RID ([3]; A (NADPH added), [14C]EC-18 2 hrs): 67.2%; Mean Peak Area in LC-RID ([3]; B (NADPH, PAPS, UDPGA added), 2 hrs): 64.6%; Mean Peak Area in LC-RID ([3]; C (no cofactor added), 2 hrs): 67.4%; survival rate vs untreated mice ([4]; 6.5 Gy TBI, BALB/c 9 weeks old): improved; survival rate vs untreated mice ([4]; 6.5 Gy TBI, BALB/c 11 weeks old): improved; survival rate vs untreated mice ([4]; 7 Gy TBI, 9 weeks old): improved until about day 15; survival rate vs untreated mice ([4]; 8 Gy TBI, 9 weeks old): improved until about day 14; survival rate vs untreated mice ([4]; 10 Gy TBI, 9 weeks old): improved until about day 9; Cmax of radioactivity at 24 hrs (so in the source) ([5]; lymphatic fluid): 48%; Cmax of radioactivity at 24 hrs (so in the source) ([5]; whole blood): 34%

Source: patent US12076307B2, “Compositions for prevention or treatment of acute radiation syndrome and other radiation exposure” (priority 2017, dated 2024)
